The source of these data is patent publication US6013642A, “Use of estrone derivatives as steroid sulphatase inhibitors” (priority 1994, dated 2000).

The test system of assay [1] is collagen II-induced arthritis. Description: Collagen II-induced arthritis in mice. It is filed as in vivo, Male DBA/1 mice. The conditions noted are these: FIG. 13; CT2251 10 mg/kg on day -1 and weekly. Here is the method: Male DBA/1 mice were sensitised with type II collagen into the base of the tail in FCA in day 0. These animals received a further injection of CII in FICA (Freunds Incomplete Adjuvant) on day 18 and incidence and severity of arthritis assessed from day 25. Mice were randomised into 3 groups (n=10).

Assay [2] deals with T1, human placental microsomal DHEAS sulphatase (Homo sapiens, UniProt P08842).
T1 construct: Human placental microsomes prepared as described in; from tissue; host or cells: human placenta, microsomes (prepared as Santner et al 1984)
T1 sequence (P08842 22-583): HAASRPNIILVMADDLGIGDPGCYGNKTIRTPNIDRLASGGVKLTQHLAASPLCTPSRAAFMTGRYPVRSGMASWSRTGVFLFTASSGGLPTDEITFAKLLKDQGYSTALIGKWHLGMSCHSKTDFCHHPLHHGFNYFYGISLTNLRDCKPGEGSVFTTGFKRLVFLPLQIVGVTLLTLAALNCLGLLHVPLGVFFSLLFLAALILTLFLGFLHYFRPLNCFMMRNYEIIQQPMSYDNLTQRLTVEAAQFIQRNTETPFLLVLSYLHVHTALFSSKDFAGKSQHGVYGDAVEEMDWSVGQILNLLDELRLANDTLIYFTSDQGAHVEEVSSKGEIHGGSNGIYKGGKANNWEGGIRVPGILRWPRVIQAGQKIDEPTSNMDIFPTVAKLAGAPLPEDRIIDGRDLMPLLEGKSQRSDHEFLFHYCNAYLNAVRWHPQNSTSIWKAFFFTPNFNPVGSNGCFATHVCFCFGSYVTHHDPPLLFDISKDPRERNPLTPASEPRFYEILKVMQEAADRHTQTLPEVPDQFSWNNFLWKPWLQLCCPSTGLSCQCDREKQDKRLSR
Put plainly: Human placental microsomal steroid sulphatase assay. It is filed as biochemical. Here is the method: a) Human placental microsomal steroid sulphatase
ENZYME: Human placental microsomes prepared as described in (Santner, S. J., et al (1984) J. Clin. Endocrinol. Metab. 59 29).
ASSAY: All assays were carried out in (at least) duplicate. The reaction mixture consisted of either PBS+250 mM sucrose (placental microsomes), containing 1 μmol/1 DHEAS [concentration chosen because approx. […]] with 0.05% (v/v) [^3 H] substrate and 0.05% (v/v) [^14 C] DHEA) in 0.5% (v/v DMSO. The reaction was initiated by addition of appropriately diluted) such that 10% substrate conversion occurred during the assay) enzyme and incubated for 30 min at 30° C. Reactions were stopped by addition of 1000 μl toluene to the reaction mixture, vortexed (2*40 sec on max setting of multitube vortexer), then allow to settle for 5 min. 500 μl top (solvent) layer removed to scintillation vial. add 10 ml scintillation fluid (Ultima Gold XR) then counted for radioactivity on a scintillation counter. As controls, enzyme was excluded from some reaction mixtures and 50% solvent and aqueous layers removed and counted for radioactivity in order to determine background (in solvent layer) and total (in aqueous layer) [^3 H]. [^14 C] DHEA is included to enable back correction to allow for product (DHEA) recovery (normally >98%). […]

Broadly, the IC50 is the concentration needed to halve the response being measured. For `C[C@]12CC[C@@H]3c4ccc(OS(N)(=O)=O)cc4CC[C@H]3[C@@H]1CCC2=O` [CT 2251, Estrone 3-0-sulphamate], the “development of arthritis (incidence and severity)” value in assay [1] is reported as “prevented the development of any disease”. In assay [2], the IC50 was 5 nM.
